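Cultured in 96-well plates, cells were exposed to test compound for 48 hours across five concentrations. Abbreviation: GI50, concentration required for 50% inhibition of growth.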 Active and inactive are the calls of the source. No stated cut-off is given here; in the data, active = GI50 up to about 1.1 µM and inactive = higher.
Legend:
Assay in all cases: NCI tumour cell line growth inhibition, 48 h
SF-268 = tested on: SF-268
SR = tested on: SR
SNB-19 = tested on: SNB-19
COLO 205 = tested on: COLO 205
HCC 2998 = tested on: HCC 2998
SNB-75 = tested on: SNB-75
OVCAR-3 = tested on: OVCAR-3
NCI-H226 = tested on: NCI-H226
IGROV-1 = tested on: IGROV-1
BT-549 = tested on: BT-549
NCI-H23 = tested on: NCI-H23
RPMI-8226 = tested on: RPMI-8226
K562 = tested on: K562
MDA-MB-231 = tested on: MDA-MB-231
NCI/ADR-RES = tested on: NCI/ADR-RES
A549 = tested on: A549
SK-MEL-2 = tested on: SK-MEL-2
UACC-62 = tested on: UACC-62
OVCAR-4 = tested on: OVCAR-4
UACC-257 = tested on: UACC-257
OVCAR-5 = tested on: OVCAR-5
Hs-578T = tested on: Hs-578T
NCI-H460 = tested on: NCI-H460
PC-3 = tested on: PC-3
RXF 393 = tested on: RXF 393
A498 = tested on: A498
TK-10 = tested on: TK-10
HOP-62 = tested on: HOP-62
T47D = tested on: T47D
LOX IMVI = tested on: LOX IMVI
DU-145 = tested on: DU-145
EKVX = tested on: EKVX
SK-MEL-5 = tested on: SK-MEL-5
MDA-N = tested on: MDA-N
HOP-92 = tested on: HOP-92
HCT-116 = tested on: HCT-116
786-0 = tested on: 786-0
SW-620 = tested on: SW-620
SK-MEL-28 = tested on: SK-MEL-28
U-251 = tested on: U-251
HCT-15 = tested on: HCT-15
HT-29 = tested on: HT-29
ACHN = tested on: ACHN
CCRF-CEM = tested on: CCRF-CEM
M14 = tested on: M14
SN12C = tested on: SN12C
KM12 = tested on: KM12
UO-31 = tested on: UO-31
Malme-3M = tested on: Malme-3M
MOLT-4 = tested on: MOLT-4
SF-539 = tested on: SF-539
MCF7 = tested on: MCF7
SF-295 = tested on: SF-295
SK-OV-3 = tested on: SK-OV-3
OVCAR-8 = tested on: OVCAR-8
MDA-MB-435 = tested on: MDA-MB-435
CAKI-1 = tested on: CAKI-1
NCI-H522 = tested on: NCI-H522
HL-60 = tested on: HL-60

Measured: GI50

CC(O)/C=C/C1OC(=O)CC1Nc1ccc(C=O)cc1 (stereo unspecified)
inactive: SF-268 > 100 µM | SR 23.1 µM | SNB-19 > 100 µM | COLO 205 42.9 µM | HCC 2998 > 100 µM | SNB-75 > 100 µM | OVCAR-3 81.3 µM | NCI-H226 > 100 µM | IGROV-1 91.2 µM | BT-549 > 100 µM | NCI-H23 59 µM | RPMI-8226 24.2 µM | K562 41.5 µM | MDA-MB-231 > 100 µM | NCI/ADR-RES > 100 µM | A549 > 100 µM | SK-MEL-2 23.3 µM | UACC-62 23.7 µM | OVCAR-4 > 100 µM | UACC-257 48.2 µM | OVCAR-5 > 100 µM | Hs-578T > 100 µM | NCI-H460 11.2 µM | PC-3 > 100 µM | RXF 393 > 100 µM | A498 > 100 µM | TK-10 > 100 µM | HOP-62 20.9 µM | T47D 60.7 µM | LOX IMVI > 100 µM | DU-145 > 100 µM | EKVX > 100 µM | SK-MEL-5 16.6 µM | MDA-N > 100 µM | HOP-92 15.3 µM | HCT-116 > 100 µM | 786-0 > 100 µM | SW-620 > 100 µM | SK-MEL-28 > 100 µM | U-251 77.6 µM | HT-29 41.7 µM | ACHN > 100 µM | CCRF-CEM 15.8 µM | M14 22.3 µM | SN12C > 100 µM | KM12 > 100 µM | UO-31 51.2 µM | Malme-3M > 100 µM | MOLT-4 10.8 µM | SF-539 87.1 µM | MCF7 55.2 µM | SF-295 28 µM | SK-OV-3 > 100 µM | OVCAR-8 > 100 µM | MDA-MB-435 > 100 µM
60.7 µM: HCT-15

CC(C)Cn1cnc2c(SCc3ccc(Cl)cc3Cl)nc(N)nc21
inactive: SF-268 34.8 µM | SR 4.38 µM | SNB-19 44.3 µM | COLO 205 11.5 µM | HCC 2998 13.9 µM | CAKI-1 49 µM | SNB-75 42.8 µM | OVCAR-3 48.5 µM | IGROV-1 48.8 µM | BT-549 29.2 µM | NCI-H522 14.6 µM | NCI-H23 26.1 µM | RPMI-8226 10.1 µM | K562 11.7 µM | MDA-MB-231 39.1 µM | NCI/ADR-RES 26.5 µM | A549 25.1 µM | SK-MEL-2 32.4 µM | UACC-62 19.8 µM | OVCAR-4 59.2 µM | UACC-257 15.5 µM | OVCAR-5 37.8 µM | Hs-578T 44.8 µM | NCI-H460 12 µM | PC-3 16.5 µM | RXF 393 17.9 µM | A498 16.1 µM | TK-10 23.1 µM | HOP-62 49.7 µM | T47D 13.5 µM | LOX IMVI 18.7 µM | DU-145 > 100 µM | EKVX 14.5 µM | SK-MEL-5 10 µM | MDA-N 41.1 µM | HOP-92 26.2 µM | HCT-116 23.2 µM | 786-0 23.9 µM | SW-620 25.3 µM | SK-MEL-28 57.1 µM | U-251 27.5 µM | HT-29 27 µM | ACHN 20.6 µM | M14 32.4 µM | SN12C 47.3 µM | KM12 27.2 µM | UO-31 23.3 µM | Malme-3M 26.4 µM | MOLT-4 7.57 µM | SF-539 15.8 µM | MCF7 18.3 µM | SF-295 23.3 µM | SK-OV-3 > 100 µM | OVCAR-8 27.7 µM | MDA-MB-435 32.3 µM
16 µM: HCT-15

CCOC(=O)c1c(N2CCCC2)[nH]c(=O)c(C(c2ccc(Cl)c([N+](=O)[O-])c2)c2c(O)c(C(=O)OCC)c(N3CCCC3)[nH]c2=O)c1O
> 100 µM: HCT-15
inactive: SF-268 23 µM | SR 40.3 µM | SNB-19 15.5 µM | COLO 205 > 100 µM | HCC 2998 > 100 µM | CAKI-1 24.4 µM | SNB-75 9.86 µM | OVCAR-3 29.9 µM | NCI-H226 63.5 µM | BT-549 16.3 µM | NCI-H522 24.5 µM | NCI-H23 22 µM | RPMI-8226 42.9 µM | K562 63.2 µM | MDA-MB-231 22 µM | NCI/ADR-RES 28.7 µM | A549 > 100 µM | UACC-62 26.8 µM | OVCAR-4 > 100 µM | UACC-257 41.5 µM | OVCAR-5 30.2 µM | Hs-578T 6.55 µM | NCI-H460 > 100 µM | PC-3 28.1 µM | RXF 393 31.7 µM | A498 33 µM | TK-10 19.2 µM | HOP-62 27.4 µM | T47D 28.1 µM | LOX IMVI 19.3 µM | DU-145 60.8 µM | EKVX 33.7 µM | SK-MEL-5 37.8 µM | MDA-N 24.5 µM | HOP-92 18.5 µM | HCT-116 34 µM | 786-0 27.2 µM | SW-620 33.3 µM | SK-MEL-28 35.3 µM | U-251 14.9 µM | ACHN 34.3 µM | CCRF-CEM 23.6 µM | M14 20.8 µM | SN12C 36.2 µM | KM12 > 100 µM | UO-31 24.7 µM | Malme-3M 38.9 µM | MOLT-4 46.6 µM | SF-539 19.2 µM | MCF7 28.6 µM | SF-295 37.6 µM | SK-OV-3 85.5 µM | OVCAR-8 15.5 µM | MDA-MB-435 29.4 µM

CCN(CC)CCC(=O)c1ccc(Sc2ccc(F)cc2)cc1
17.3 µM: HCT-15
inactive: SF-268 15.8 µM | SR 12.9 µM | SNB-19 17.6 µM | COLO 205 21.1 µM | HCC 2998 32.6 µM | CAKI-1 16 µM | SNB-75 17.5 µM | OVCAR-3 18.8 µM | NCI-H226 16 µM | IGROV-1 18.2 µM | BT-549 17.2 µM | NCI-H522 16.1 µM | NCI-H23 17.7 µM | RPMI-8226 2.44 µM | K562 52.8 µM | MDA-MB-231 16.9 µM | NCI/ADR-RES 24.3 µM | A549 > 100 µM | SK-MEL-2 21.1 µM | UACC-62 16.2 µM | OVCAR-4 20.1 µM | UACC-257 15.7 µM | OVCAR-5 19.7 µM | Hs-578T 15.8 µM | NCI-H460 17.7 µM | PC-3 17.1 µM | RXF 393 17 µM | A498 26.4 µM | TK-10 14.4 µM | HOP-62 18.7 µM | T47D 21.2 µM | LOX IMVI 17.4 µM | DU-145 18.9 µM | EKVX 19.9 µM | SK-MEL-5 17.1 µM | MDA-N 25 µM | HCT-116 18.2 µM | 786-0 10.8 µM | SW-620 19.9 µM | SK-MEL-28 17.8 µM | U-251 16 µM | HT-29 21.8 µM | ACHN 18.3 µM | CCRF-CEM 7.28 µM | M14 20.5 µM | SN12C 21.7 µM | KM12 15.7 µM | UO-31 17.8 µM | HL-60 20.1 µM | Malme-3M 16 µM | MOLT-4 15.1 µM | SF-539 17.7 µM | MCF7 14.7 µM | SF-295 19.3 µM | SK-OV-3 23.3 µM | OVCAR-8 19.4 µM | MDA-MB-435 14.9 µM

C[N+](C)(C)c1nc(N)nc2c1ncn2C1OC(CO)C(O)C1O (stereo unspecified)
inactive: SF-268 > 100 µM | SR > 100 µM | SNB-19 > 100 µM | COLO 205 > 100 µM | HCC 2998 > 100 µM | CAKI-1 > 100 µM | SNB-75 > 100 µM | OVCAR-3 > 100 µM | IGROV-1 > 100 µM | BT-549 > 100 µM | NCI-H522 > 100 µM | NCI-H23 > 100 µM | RPMI-8226 > 100 µM | K562 > 100 µM | MDA-MB-231 > 100 µM | NCI/ADR-RES > 100 µM | A549 > 100 µM | SK-MEL-2 > 100 µM | UACC-62 > 100 µM | OVCAR-4 > 100 µM | UACC-257 > 100 µM | OVCAR-5 > 100 µM | Hs-578T > 100 µM | NCI-H460 > 100 µM | PC-3 > 100 µM | RXF 393 > 100 µM | A498 > 100 µM | TK-10 > 100 µM | HOP-62 > 100 µM | T47D > 100 µM | LOX IMVI > 100 µM | DU-145 > 100 µM | EKVX > 100 µM | SK-MEL-5 > 100 µM | MDA-N > 100 µM | HOP-92 > 100 µM | HCT-116 > 100 µM | 786-0 > 100 µM | SW-620 > 100 µM | SK-MEL-28 > 100 µM | U-251 > 100 µM | HT-29 > 100 µM | ACHN > 100 µM | CCRF-CEM 3.08 µM | M14 > 100 µM | SN12C > 100 µM | KM12 > 100 µM | UO-31 > 100 µM | Malme-3M > 100 µM | MOLT-4 > 100 µM | SF-539 > 100 µM | MCF7 > 100 µM | SK-OV-3 > 100 µM | OVCAR-8 > 100 µM | MDA-MB-435 > 100 µM
> 100 µM: HCT-15
